Test results published in patent publication US20100179142A1 (priority 2003, published 2010).

What was measured:
MMTV-neu tumours = type: in vivo, mice
Procedure: Following pregnancy, which induces activation of the promoter, MMTV-neu mice spontaneously develop multiple tumours within each mammary gland. […] Control animals were dosed with vehicle (1% polysorbate 80). Due to variability in the growth of spontaneous tumours, dosing commenced at different times relative to the assessment of tumour volume, which was determined twice weekly on all animals using calipers. To simplify the analysis, data within each group were collated in 3 day intervals (e.g. tumour volumes from mice receiving either 2, 3 or 4 doses of compound were pooled and the mean volume plotted against “day 3”). Data is plotted for measurements grouped over 3 day periods ie 2-4, 5-7, 8-10 etc. Statistical analysis was performed on measurements between 20 and 22 days of dosing.

[1] = test system: A431 vulval carcinoma xenografts; experiment: Human A431 vulval carcinoma tumour xenografts in nude mice; settings: p.o. daily, AZD2171 3 mg/kg/day, ZD1839 50 mg/kg/day or both; for Number of tumours regressing after 24 days of treatment (treatment from day 28 to day 52): regressing/total
Procedure: 5×10^6 A431 tumour cells in 0.1 ml of serum free Dulbecco's Modified Eagle's Medium (DMEM) were injected subcutaneously (s.c.) into the flank of each athymic (nu/nu genotype) mouse. Eleven days after inoculation tumours were excised and dissected to generate cubic tumour fragments of 0.5-1 mm^3, which were implanted into further nude mice for a therapy experiment. Tumour volumes were assessed by bilateral Vernier caliper measurement and, taking length to be the longest diameter across the tumour and width the corresponding perpendicular, calculated using the formula (length×width)×the square root of (length×width)×(π/6). […] Inhibition of tumour growth from the start of treatment was assessed on day 45 (the point at which control animals were removed from the experiment because of tumour burden) by comparison of the differences in tumor volume between control and treated groups. In addition, the number of tumour regressions following 24 days of treatment was ascertained (tumour regression being evident if the tumour volume at day 52 was smaller than the pre-treatment value on day 28).

Structure (SMILES) | inhibition of growth of established MMTV-neu tumours (MMTV-neu tumours; AZD2171 alone 1 or 3 mg/kg/day, orally once-daily, 20-22 days of dosing, P<0.05) | Number of tumours regressing after 24 days of treatment (treatment from day 28 to day 52) [1] | Mean % Inhibition of tumour growth following 17 days of treatment (treatment from day 28 to day 45) ([1]; versus control at day 45) | anti-tumour effect in MMTV-neu mice (MMTV-neu tumours; mouse, in vivo)
COc1cc2c(Oc3ccc4[nH]c(C)cc4c3F)ncnc2cc1OCCCN1CCCC1 [AZD2171, 4-(4-fluoro-2-methylindol-5-yloxy)-6-methoxy-7-(3-(pyrrolidin-1-yl)propoxy)quinazoline] | inhibited the growth of established (≧0.4 cm^3) MMTV-neu tumours significantly | 2/10 | 95% (P < 0.001) | 
COc1cc2ncnc(Nc3ccc(F)c(Cl)c3)c2cc1OCCCN1CCOCC1 [ZD1839, N-(3-chloro-4-fluorophenyl)-7-methoxy-6-(3-morpholinopropoxy)quinazolin-4-amine, reference compound] |  | 2/10 |  | significant anti-tumour effect
